Common to all, as to format: biochemical
Experiment [1] addresses T1, ENPP1 (Homo sapiens, UniProt P22413).
T1 sequence (P22413 1-925): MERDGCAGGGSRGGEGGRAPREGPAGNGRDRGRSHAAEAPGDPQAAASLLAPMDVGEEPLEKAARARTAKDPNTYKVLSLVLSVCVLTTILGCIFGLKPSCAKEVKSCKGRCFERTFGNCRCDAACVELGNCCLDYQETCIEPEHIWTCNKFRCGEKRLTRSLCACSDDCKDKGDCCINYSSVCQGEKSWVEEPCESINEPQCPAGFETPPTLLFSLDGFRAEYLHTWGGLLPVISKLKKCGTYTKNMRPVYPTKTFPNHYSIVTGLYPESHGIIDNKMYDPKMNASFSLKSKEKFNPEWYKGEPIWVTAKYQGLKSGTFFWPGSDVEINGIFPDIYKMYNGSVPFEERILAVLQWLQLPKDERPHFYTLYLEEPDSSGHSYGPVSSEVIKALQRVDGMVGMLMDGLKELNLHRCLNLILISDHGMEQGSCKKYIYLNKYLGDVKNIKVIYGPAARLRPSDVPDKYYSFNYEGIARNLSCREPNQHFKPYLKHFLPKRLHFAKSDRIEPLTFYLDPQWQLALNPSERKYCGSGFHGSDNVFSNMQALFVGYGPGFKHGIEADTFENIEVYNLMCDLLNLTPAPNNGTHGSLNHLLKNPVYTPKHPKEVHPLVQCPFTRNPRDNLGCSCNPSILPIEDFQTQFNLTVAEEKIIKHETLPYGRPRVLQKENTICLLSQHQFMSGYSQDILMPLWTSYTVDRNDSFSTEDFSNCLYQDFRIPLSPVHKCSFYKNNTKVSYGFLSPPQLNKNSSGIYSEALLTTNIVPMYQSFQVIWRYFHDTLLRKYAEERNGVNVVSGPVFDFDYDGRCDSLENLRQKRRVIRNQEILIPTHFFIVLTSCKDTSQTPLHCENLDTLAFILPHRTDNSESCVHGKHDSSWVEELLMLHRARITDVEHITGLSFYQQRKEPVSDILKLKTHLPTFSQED
Kind of experiment: ENPP1 enzyme assay with AMP-pNP substrate (hydrolysis of ATP analog). Conditions: AMP-pNP substrate (ATP analog); Ki from IC50 by Cheng-Prusoff; read-out: ENPP1 Inhibition _AMP-pNP: Ki. The method in brief: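 Reactions ran 20 min at 37 °C, pH 8.5 Tris buffer with NaCl, CaCl2, ZnCl2, using 300 µM AMP-pNP and 60 ng/well recombinant human ENPP1; inhibitor range 10 µM–30 pM, duplicates.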

Experiment [2] concerns the target T1, ENPP1. Kind of experiment: Substrate selectivity ratio, inhibition of cGAMP hydrolysis versus ATP hydrolysis. The note with it: ratio Ki AMP-pNP / Ki cGAMP. Here is the method:
The selectivity ratios for inhibition of cGAMP hydrolysis versus ATP hydrolysis were then calculated as follows: […]

In experiment [3] the target is T1, ENPP1. The experiment is described as follows: Indirect quantitation of 2',3'-cGAMP hydrolysis (AMP-Glo Assay kit). The note with it: cGAMP substrate; Ki from IC50 by Cheng-Prusoff; read-out: ENPP1 Inhibition -cGAMP: Ki.

Here are results for 25 compounds from US20230183239A1, “ECTONUCLEOTIDE PYROPHOSPHATASE-PHOSPHODIESTERASE 1 (ENPP-1) INHIBITORS AND USES THEREOF” (AbbVie Inc., priority 2017, published 2023).

With `COc1cc2nccc(N3CC4CN(S(N)(=O)=O)CC4C3)c2cc1OC` (stereo not drawn) [Example 202, 5-(6,7-dimethoxyquinolin-4-yl)hexahydropyrrolo[3,4-c]pyrrole-2(1H)-sulfonamide], the Ki on ENPP1 [1] was 100 to 1000 nM; at ENPP1 [3], < 100 nM. In addition, at ENPP1 [2], the “Substrate Selectivity: Ki_AMP-pNP/Ki_cGAMP” value (“Substrate Selectivity” below) amounted to 10.5.

Turning to `COc1cc2nccc(N3CCC(CCNS(=O)(=O)NC(C)=O)CC3)c2cc1OC` [Example 203, N-(N-(2-(1-(6,7-dimethoxyquinolin-4-yl)piperidin-4-yl)ethyl)sulfamoyl)acetamide], the Ki on ENPP1 [1] is > 1000 nM; on ENPP1 [3], 100 to 1000 nM. Besides, at ENPP1 [2], the “Substrate Selectivity” value is reported as > 33.7.

Take `COc1cc2nccc(N3CCC(CCNS(N)(=O)=O)CC3)c2cn1` [Example 204, N-(2-(1-(7-methoxy-1,6-naphthyridin-4-yl)piperidin-4-yl)ethyl)sulfamide]: the results for the Ki on ENPP1 [1] and on ENPP1 [3] were > 1000 nM and 100 to 1000 nM, respectively. The “Substrate Selectivity” value on ENPP1 [2] was > 39.4.

As to `COc1cc2ncnc(N3CCC(CCNS(N)(=O)=O)CC3)c2cc1OC(C)C` [Example 205, N-(2-(1-(6-isopropoxy-7-methoxyquinazolin-4-yl)piperidin-4-yl)ethyl)sulfamide], the Ki on ENPP1 [1] is > 1000 nM; on ENPP1 [3], 100 to 1000 nM. Also, the “Substrate Selectivity” value at ENPP1 [2] is > 14.4.

Turning to `COc1cc2ncnc(N3CCC(CCNS(N)(=O)=O)CC3)c2cc1F` [Example 206, N-(2-(1-(6-fluoro-7-methoxyquinazolin-4-yl)piperidin-4-yl)ethyl)sulfamide], the inhibitory constant (Ki) on ENPP1 [1] was 100 to 1000 nM; at ENPP1 [3], < 100 nM. Also, at ENPP1 [2], the “Substrate Selectivity” value is recorded as 39.6.

Turning to `COc1cc2nccc(Nc3ccc(CC(=O)NO)cc3)c2cc1OC` [Example 207, 2-(4-((6,7-dimethoxyquinolin-4-yl)amino)phenyl)-N-hydroxyacetamide], the Ki at ENPP1 [1] and on ENPP1 [3] was < 100 nM each time. The “Substrate Selectivity” value at ENPP1 [2] stood at 36.8.

As to `COc1cc2ncnc(N3CCC(CCNS(=O)(=O)C(F)F)CC3)c2cc1OC` [Example 208, N-(2-(1-(6,7-dimethoxyquinazolin-4-yl)piperidin-4-yl)ethyl)-1,1-difluoromethanesulfonamide], the Ki at ENPP1 [1] was > 1000 nM; on ENPP1 [3], < 100 nM. Also, the “Substrate Selectivity” value at ENPP1 [2] was > 16.4.

With `COc1cc2nccc(N3CCC(CN(C4CC4)S(N)(=O)=O)CC3)c2cc1OC` [Example 212, N-cyclopropyl-N-((1-(6,7-dimethoxyquinolin-4-yl)piperidin-4-yl)methyl)sulfamide], the values for the Ki at ENPP1 [1] and on ENPP1 [3] were > 1000 nM and < 100 nM, respectively. Further, the “Substrate Selectivity” value at ENPP1 [2] is on record as > 46.1.

For the compound `COc1cc2nccc(OC3CCC(NS(N)(=O)=O)C3)c2cc1OC` (stereo not drawn) [Example 213, N-(3-((6,7-dimethoxyquinolin-4-yl)oxy)cyclopentyl)sulfamide], the inhibition constant (Ki) on ENPP1 [1] is > 1000 nM; at ENPP1 [3], < 100 nM. The “Substrate Selectivity” value on ENPP1 [2] amounted to 33.0.

Turning to `COc1cc2nccc(N3CC4(C3)CN(S(N)(=O)=O)C4)c2cc1OC` [Example 214, 6-(6,7-dimethoxyquinolin-4-yl)-2,6-diazaspiro[3.3]heptane-2-sulfonamide], the Ki at ENPP1 [1] is > 1000 nM; on ENPP1 [3] it was 100 to 1000 nM. Further, at ENPP1 [2], the “Substrate Selectivity” value is on record as > 15.3.

`COc1cc2c(N3CCC(CCNS(N)(=O)=O)CC3)c(C#N)cnc2cn1` [Example 216, N-(2-(1-(3-cyano-6-methoxy-1,7-naphthyridin-4-yl)piperidin-4-yl)ethyl)sulfamide]: the inhibition constant Ki at ENPP1 [1] was > 1000 nM; at ENPP1 [3], < 100 nM. For the same compound, the “Substrate Selectivity” value at ENPP1 [2] is listed as > 72.3.

Turning to `COc1cc2ncn(-c3ccc(CCNS(N)(=O)=O)cc3)c2cc1OC` [Example 217, N-(4-(5,6-dimethoxy-1H-benzo[d]imidazol-1-yl)phenethyl)sulfamide], the Ki on ENPP1 [1] was > 1000 nM; on ENPP1 [3], 100 to 1000 nM. Besides, the “Substrate Selectivity” value on ENPP1 [2] is > 18.2.

As for `COc1nc2ncnc(N3CCC(CCNS(N)(=O)=O)CC3)c2n1C` [Example 218, N-(2-(1-(8-methoxy-7-methyl-7H-purin-6-yl)piperidin-4-yl)ethyl)sulfamide], the figures for the Ki at ENPP1 [1] and at ENPP1 [3] were > 1000 nM and 100 to 1000 nM, respectively. In addition, the “Substrate Selectivity” value at ENPP1 [2] is >42.9.

As for `COc1cc2ncnc(N3CCC(CCN(O)C=O)CC3)c2cc1OC` [Example 219, N-(2-(1-(6,7-dimethoxyquinazolin-4-yl)piperidin-4-yl)ethyl)-N-hydroxyformamide], the Ki at ENPP1 [1] was 100 to 1000 nM; on ENPP1 [3], < 100 nM. Further, on ENPP1 [2], the “Substrate Selectivity” value stood at 26.4.

For the compound `COc1cc2nccc(N3CCC(CCNS(N)(=O)=O)CC3)c2cc1F` [Example 220, N-(2-(1-(6-fluoro-7-methoxyquinolin-4-yl)piperidin-4-yl)ethyl)sulfamide], the Ki was 100 to 1000 nM at ENPP1 [1] and < 100 nM at ENPP1 [3]. In addition, the “Substrate Selectivity” value on ENPP1 [2] was 35.9.

As to `COc1cc2ncnc(N3CCC(CCC(N)=O)CC3)c2cc1OC` [Example 222, 3-(1-(6,7-dimethoxyquinazolin-4-yl)piperidin-4-yl)propanamide], the inhibition constant Ki on ENPP1 [1] is > 1000 nM; at ENPP1 [3], 100 to 1000 nM. Besides, the “Substrate Selectivity” value at ENPP1 [2] is on record as > 14.6.

On to `COc1ccc2c(Oc3cnc(NS(N)(=O)=O)nc3)ccnc2c1` [Example 224, N-(5-((7-methoxyquinolin-4-yl)oxy)pyrimidin-2-yl)sulfamide], for which the inhibition constant (Ki) on ENPP1 [1] and on ENPP1 [3] was 100 to 1000 nM in each case. Besides, the “Substrate Selectivity” value at ENPP1 [2] is on record as > 2.40.

Consider `COc1cc2nccc(-c3ccc(CNS(N)(=O)=O)cc3)c2cc1OC` [Example 225, N-(4-(6,7-dimethoxyquinolin-4-yl)benzyl)sulfamide], for which the Ki on ENPP1 [1] and at ENPP1 [3] was < 100 nM throughout. At ENPP1 [2], the “Substrate Selectivity” value stood at 48.4.

For the compound `COc1ccc2c(-c3ccc(CNS(N)(=O)=O)cc3)ncnc2c1` [Example 226, N-(4-(7-methoxyquinazolin-4-yl)benzyl)sulfamide], the values for the Ki on ENPP1 [1] and at ENPP1 [3] were 100 to 1000 nM and < 100 nM, respectively. In addition, on ENPP1 [2], the “Substrate Selectivity” value was 29.5.

For `COc1ccc2c(Oc3ccc(NS(N)(=O)=O)cc3)ncnc2n1` [Example 227, N-(4-((7-methoxypyrido[2,3-d]pyrimidin-4-yl)oxy)phenyl)sulfamide], the Ki at ENPP1 [1] is 100 to 1000 nM; at ENPP1 [3] it was < 100 nM. Further, at ENPP1 [2], the “Substrate Selectivity” value was determined as 51.9.

In the case of `COc1cc2ncc(F)c(-c3ccc4c(c3)CN(S(N)(=O)=O)CC4)c2cc1OC` [Example 229, 7-(3-fluoro-6,7-dimethoxyquinolin-4-yl)-3,4-dihydroisoquinoline-2(1H)-sulfonamide], the inhibition constant (Ki) on ENPP1 [1] and on ENPP1 [3] was < 100 nM in each case. The “Substrate Selectivity” value on ENPP1 [2] worked out at 27.2.

On to `COc1ccc2c(NCc3ccc(S(N)(=O)=O)cc3)ncnc2c1` [Example 230, 4-(((7-methoxyquinazolin-4-yl)amino)methyl)benzene sulfonamide], for which the Ki on ENPP1 [1] and on ENPP1 [3] was < 100 nM each time. The “Substrate Selectivity” value at ENPP1 [2] amounted to 71.2.

Take `COc1ccc2c(Nc3ccc(NS(N)(=O)=O)cc3)ccnc2n1` [Example 231, N-(4-((7-methoxy-1,8-naphthyridin-4-yl)amino)phenyl)sulfamide]: the Ki at ENPP1 [1] and on ENPP1 [3] was < 100 nM in each case. In addition, the “Substrate Selectivity” value at ENPP1 [2] was determined as 30.9.

On to `NS(=O)(=O)NCCC1CCN(c2ncnc3c2CCNC3)CC1` [Example 232, N-(2-(1-(5,6,7,8-tetrahydropyrido[3,4-d]pyrimidin-4-yl)piperidin-4-yl)ethyl)sulfamide], for which the Ki on ENPP1 [1] was > 1000 nM; at ENPP1 [3] it was 100 to 1000 nM. Also, the “Substrate Selectivity” value on ENPP1 [2] is listed as > 7.1.

On to `COc1cc2c(-c3ccc(CNS(N)(=O)=O)cc3)c(C#N)cnc2cn1` [Example 235, N-(4-(3-cyano-6-methoxy-1,7-naphthyridin-4-yl)benzyl)sulfamide], for which the Ki is > 1000 nM at ENPP1 [1] and 100 to 1000 nM on ENPP1 [3]. In addition, the “Substrate Selectivity” value at ENPP1 [2] is given as >97.7.
